These results are taken from PMC9145393, “Design, Semisynthesis, and Estrogenic Activity of Lignan Derivatives from Natural Dibenzylbutyrolactones” (Pharmaceuticals, 2022).

Test [1] has as its system ER-dependent transcriptional activity in T47D-KBluc cells. Description: ERE-luciferase reporter in T47D-KBluc cells, agonist assessment (absence of E2). Format: cell-based, human. Set-up: Emax: dose or concentration left out as unconfirmed. The conditions noted are these: for Emax: Homo sapiens, read-out: E/Emax (%) VEH; for E/Emax (%) VEH: lignans 5 μM, absence of E2 (VEH), relative to Emax induced by 0.1 nM E2, Mean ± SEM. As for the experimental part: (§1) Lactols (5) and (6) were tested as a mixture of the two epimers obtained.
(§2) Chemical screening was carried out by using T47D-KBluc cells, an ER+ BC cell line that is stably transfected with the pGL2.TATA.Inr.Luc.neo containing three ER-responsive elements (ERE). The T47D-KBluc cells were maintained in standard growth media as detailed above. Dosing media was further modified by reduction of DCC-FBS to 5%. […] Chemical screening was also carried out by using the triple negative BC cell line MDA-kb2 cells that stably expresses pMMTV.neo.luc gene, an AR- and GR-responsive reporter gene. […] The T47D-KBluc cells or the MDA-kb2 cells were seeded at 100,000 cells per well in 24-well plates (Nunclon, Sigma-Aldrich, Darmstadt, Germany ) and allowed to attach overnight. Then, the media was replaced with 1 mL/well of dosing media and test compounds incubated 24 h. Then, the cells were harvested in 100 µL passive lysis buffer (Promega, Madison, WI, USA) per well. The relative light units (RLUs), which correspond to luciferase activity from each sample, were measured by using Luciferase Assay Reagent (Promega) in a Clarity luminescence microplate reader (BIOTEK, Winooski, VT, USA). The RLUs from each sample were normalized by protein concentration and converted to fold induction with respect to vehicle-treated control. […] Then, the percent of efficacy (E) of each tested compound, as compared with Emax, was calculated. […] Data are expressed as mean ± SEM of triplicate independent experiments, where each treatment was assayed in triplicate. […] Duplicate plates were dosed in parallel to control the effects of compounds on cell viability. The protein concentration was measured in cell lysate using colorimetric assay reagent (BioRad, CA, USA).
(In general: A reporter such as luciferase makes a cellular process visible.)

The target in another test is T1, rhERα-LBD (Homo sapiens, UniProt P03372).
T1 sequence (P03372 311-547 limits assumed): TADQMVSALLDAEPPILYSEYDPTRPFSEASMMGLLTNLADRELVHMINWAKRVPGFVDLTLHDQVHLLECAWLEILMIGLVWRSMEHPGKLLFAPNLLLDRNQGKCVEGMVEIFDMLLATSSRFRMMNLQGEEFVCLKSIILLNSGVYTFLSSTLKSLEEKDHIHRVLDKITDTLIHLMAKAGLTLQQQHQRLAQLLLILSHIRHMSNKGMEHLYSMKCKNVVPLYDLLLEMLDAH
Kind of test: LanthaScreen TR-FRET competitive binding assay. As to conditions: 10-point competition curves, Mean ± SE. As to the method:
Next, the binding of lignan derivatives to the LBD of rhERα was analyzed by using time-resolved fluorescence resonance energy transfer (TR-FRET) competitive binding assay. […] The LanthaScreen^TM TR-FRET Nuclear Receptor (NR) binding assay (SelectScreen^TM Profiling Service, Life Technologies, Carlsbad, CA, USA) was used for screening of potential binding of lignan derivatives to human ERα [33]. Briefly, the kit uses the recombinant human ERα (rhERα) protein and a tight binding, selective fluorescent ligand, Fluormone^TM tracer. […] The rhERα protein and the tracer form rhERα/tracer complex, resulting in a high FP value. […] Dose-response competition curves were fitted by nonlinear regression analyses in the GraphPad software 8 (GraphPad Software, San Diego, CA, USA) to obtain IC50 values.
Data are expressed as mean ± SEM for from at least three independent experiments, where each concentration is tested in triplicate.
For orientation: Time-resolved FRET reads energy transfer from a long-lived donor to a nearby acceptor.

Another test relates to T47D cells. Kind of test: MTT cell viability, E2-depleted T47D cells. Format: cell-based, human. The conditions noted are these: 10 μM, 24 h, absence of E2. As to the method: The effects of lignan derivatives were evaluated on human ER+ BC cells.
Cells were maintained in RPMI (Lonza, Basel, Switzerland) growth media, without phenol red, supplemented with 10% fetal bovine serum (FBS) (Lonza), 2 mM glutamine, 10 mM HEPES, 1 mM sodium pyruvate, 100 UI/mL penicillin and 100 μg/mL streptomycin. Cells were growth in a humidified incubator with 5% CO2 at 37 °C.
The cells were maintained in standard growth media as detailed above and seeded at exponential growth density (6000 cells per well) in 96-well plates (BD Falcon, France). The cells were then treated with vehicle or tests compounds (from 0.01 μM to 10 μM) for 24–72 h. The mitochondrial metabolization of the tetrazolium salt 3-(4,5-methyltiazol-2yl-)-2,5diphenyl-tetrazolium bromide] (MTT) (Applichen, Darmstadt, Germany) was used as an indicator of cell viability.
Figure 6 Effects of lignans on ER+ breast cancer cell viability. […] Then, the mitochondrial metabolization of MTT was used as an indicator of cell viability, as described in the Material and Methods. Data are expressed as mean ± SEM for at least three independent experiments, where each concentration is tested in triplicate. * p < 0.05, ** p < 0.01, and *** p < 0.001 versus VEH-treated cells.

Test [2] has as its system E2-induced ERE-luciferase activity in T47D-KBluc cells. Description: ERE-luciferase reporter in T47D-KBluc cells, antagonist assessment (presence of 0.1 nM E2). The format is cell-based. The conditions noted are these: Homo sapiens. As to the method: as §1
as §2, with “Then, the media was replaced with 1 mL/well of dosing media and test compounds incubated 24 h.” left out

The mark [3] stands for this setting: read-out: IC50 (inhibition of Fluormone tracer binding to rhERα).
The mark [4] stands for this setting: read-out: IC50 (reduction of E2-induced Emax), lignans 1 μM to 10 μM, 1 h before 0.1 nM E2 for 18 h, predicted by nonlinear regression, Mean ± SE.

Values joined by “and” are separate entries in the source; they are usually repeats but may differ in a detail not shown here. Equal values may be shown once. Read-outs that look alike come from different tables or passages of the source. Where only a bound is given, the exact number is not on record here.

As a reminder, the IC50 is the midpoint of a concentration-inhibition curve. As to `COc1ccc(C[C@H]2C(O)OC[C@@H]2Cc2ccc3c(c2)OCO3)cc1OC` (mixture of isomers) [Compound 5, (3R,4R)-4-(Benzo[d][1,3]dioxol-5-ylmethyl)-3-(3,4-dimethoxybenzyl) Tetrahydro Furan-2-ol], in test [1], the Emax was 22.7 ± 4.26% and the “E/Emax (%) VEH” value is “weak estrogenic activity”. Moreover, at rhERα-LBD (setting [3]), the concentration for half-maximal inhibition (IC50) worked out at 3.24 ± 2.03 µM.
With `COc1ccc(C[C@H]2COC(O)[C@@H]2Cc2ccc(OC)c(OC)c2)cc1OC` (mixture of isomers) [Compound 6, (3R,4R)-3,4-Bis(3,4-dimethoxybenzyl)tetrahydrofuran-2-ol], the Emax in test [1] amounted to 5.86 ± 0.84%. Also, the “reduction of cell viability” value in the test with T47D cells stood at 16.6%.
For the compound `COc1ccc(C[C@H]2C(=O)OC[C@@H]2Cc2ccc3c(c2)OCO3)cc1OC` [Compound 1, (−)-Bursehernin], the Emax in test [1] stood at 17.6 ± 5.4%. Moreover, the IC50 is 0.39 ± 0.19 µM at rhERα-LBD (IC50 (inhibition of Fluormone tracer binding to rhERα)) and under 20 µM in test [2] (lignans 1 μM to 10 μM, 1 h before 0.1 nM E2 for 18 h, predicted by nonlinear regression, Mean ± SE, read-out: IC50 (reduction of E2-induced Emax)). Besides, the “reduction of cell viability” value with T47D cells is reported as “reduced cell viability”.
Turning to `O=C1OC[C@H](Cc2ccc(O)c(O)c2)[C@H]1Cc1ccc(O)c(O)c1` [Compound 3, (3R,4R)-3,4-Bis(3,4-dihydroxybenzyl)dihydrofuran-2(3H)-one], in test [1], the Emax worked out at 24.5 ± 6.53% and the “E/Emax (%) VEH” value is on record as “weak estrogenic activity”. The 50% inhibitory concentration (IC50) at rhERα-LBD (setting [3]) is 0.6 ± 0.11 µM.
Regarding `COc1ccc(C[C@H]2C(=O)OC[C@@H]2Cc2ccc(O)c(O)c2)cc1OC` [Compound 4, (3R,4R)-4-(3,4-Dihydroxybenzyl)-3-(3,4-dimethoxybenzyl)dihydrofuran-2(3H)-one], the Emax in test [1] worked out at 15.8 ± 2.15%. Also, the IC50 is 6 µM and 6.04 µM on rhERα-LBD (setting [3]); over 10 µM in test [2] (setting [4]).
On to `CC/C(=C(\c1ccc(O)cc1)c1ccc(OCCN(C)C)cc1)c1ccccc1` [Compound 4-OHTAM, 4-hydroxytamoxifen, reference compound], for which the IC50 in test [2] (read-out: IC50 (abolition of E2 effect by coincubation), antiestrogen coincubated with E2) was 0.38 ± 0.009 µM.
Take `COc1ccc(C[C@@H](CO)[C@H](CO)Cc2ccc3c(c2)OCO3)cc1OC` [Compound 7, (2R,3R)-2-(Benzo[d][1,3]dioxol-5-ylmethyl)-3-(3,4-dimethoxybenzyl)butane-1,4-diol]: the Emax in test [1] is 13.1 ± 2.58%. Further, the IC50 on rhERα-LBD (setting [3]) was found to be 4 ± 1.6 µM.
Take `COc1ccc(C[C@@H](CO)[C@H](CO)Cc2ccc(OC)c(OC)c2)cc1OC` [Compound 8, (2R,3R)-2,3-Bis(3,4-dimethoxybenzyl)butane-1,4-diol]: the Emax in test [1] turned out to be 9.41 ± 1.88%. Besides, the “reduction of cell viability” value with T47D cells is given as “reduced cell viability”.
As to `COc1ccc(C[C@H]2COC[C@@H]2Cc2ccc3c(c2)OCO3)cc1OC` [Compound 9], in test [1], the Emax came out at 23.8 ± 6.34% and the “E/Emax (%) VEH” value is listed as “weak estrogenic activity”. Besides, the IC50 on rhERα-LBD (setting [3]) is 8 µM and 7.65 µM. The “reduction of cell viability” value in the test with T47D cells is on record as 55.6%.
For `COc1ccc(C[C@H]2COC[C@@H]2Cc2ccc(OC)c(OC)c2)cc1OC` [Compound 10, (3R,4R)-3,4-Bis(3,4-dimethoxybenzyl)tetrahydrofuran], the Emax in test [1] is 3.91 ± 1.55%.
In the case of `COc1ccc(C[C@H]2COC[C@@H]2Cc2ccc(O)c(O)c2)cc1OC` [Compound 11], the Emax in test [1] was found to be 12.1 ± 4.33%. Also, the “E/Emax (%) VEH” value in test [1] is “weak estrogenic activity”. Besides, the values for the IC50 (on rhERα-LBD (setting [3]); in test [2] (setting [4])) were 0.5 ± 0.17 µM and under 20 µM, respectively. The “reduction of cell viability” value with T47D cells is reported as “reduced cell viability”.
Consider `COc1ccc(C[C@@H](COS(C)(=O)=O)[C@H](COS(C)(=O)=O)Cc2ccc3c(c2)OCO3)cc1OC` [Compound 12, (2R,3R)-2-(Benzo[d][1,3]dioxol-5-ylmethyl)-3-(3,4-dimethoxybenzyl)butane-1,4-diyl Dimethanesulfonate], for which, in test [1], the Emax came to 22.2 ± 3.89% and the “E/Emax (%) VEH” value is recorded as “weak estrogenic activity”. Besides, the “reduction of cell viability” value with T47D cells was “reduced cell viability”.
On to `COc1ccc(C[C@@H](C)[C@H](C)Cc2ccc3c(c2)OCO3)cc1OC` [Compound 13, 5-((2R,3R)-4-(3,4-Dimethoxyphenyl)-2,3-dimethylbutyl)benzo[d][1,3]dioxole], for which the Emax in test [1] turned out to be 16.7 ± 3.37%. Moreover, the IC50 on rhERα-LBD (setting [3]) was 5.02 ± 1.54 µM. In the test with T47D cells, the “reduction of cell viability” value is reported as “reduced cell viability”.
In the case of `COc1cc2c(cc1OC)-c1cc(O)c(O)cc1C[C@H]1COC(=O)[C@@H]1C2` [Compound 15, (3aR,13aR)-6,7-Dihydroxy-10,11-dimethoxy-3a,4,13,13a-tetrahydro Dibenzo [4,5:6,7]Cycloocta [1,2-c]Furan-1(3H)-one], the Emax in test [1] is 15.6 ± 5.66%.
Same read-out and setting: the result for `O=C1OC[C@@H]2Cc3cc(O)c(O)cc3-c3cc(O)c(O)cc3C[C@@H]12` [Compound 16, (3aR,13aR)-6,7,10,11-Tetrahydroxy-3a,4,13,13a-tetrahydrodibenzo [4,5:6,7] Cycloocta [1,2-c]Furan-1(3H)-One] reads 11.3 ± 3.47%.
On the same count and under the same terms, as for `C[C@]12CC[C@@H]3c4ccc(O)cc4CC[C@H]3[C@@H]1CC[C@@H]2O` [Compound E2, 17β-estradiol, reference compound], the figure is 100 ± 11.3%.
